Source: patent publication US10906904B2, “ADO-resistant cysteamine analogs and uses thereof” (HORIZON ORPHAN LLC, priority 2015, dated 2021)
Where two headings read alike, the source gives them in different places.

Legend:
Cystine reactivity assay = settings: 30° C., percentage of 3 mM cysteamine
Description: Cystine reactivity was assessed by incubating 3 mM test compound with 100 nM BODIPY® FL L-Cystine (Life Tech.) at 30° C., pH 7.4 in phosphate buffer. […] Compound cystine reactivity was expressed as a percentage of that of 3 mM cysteamine.
Under resting conditions, the inherent fluorescence of BODIPY® FL L-cystine was very low due to the spatial proximity of the two BODIPY molecules causing quenching. Under chemical reaction (disruption of the S—S bond), the spatial distance was increased, the quenching lost, and measured fluorescence increased. Time (minutes) vs. fluorescence (relative fluorescence units—RFU) was plotted and linear regression analysis was performed to generate a slope value corresponding to the reaction rate in RFU/min and an R2 value.

St-HdhQ^111/111 cells = test: Glutamate-induced neuronal excitotoxicity assay; type: cell-based; settings: STHdhQ111, 6 mM L-glutamate 24 hours, % of effect of 100 μM cysteamine; for viability at 10 µM: read-out: HdhQ^111/111 cell % survival (mean ± STD) Test Conc. 10 μM; for viability at 100 µM: read-out: HdhQ^111/111 cell % survival (mean ± STD) Test Conc. 100 μM
Description: The ability of test compounds to inhibit glutamate-induced excitotoxicity (neuroprotection) in St-HdhQ^111/111 cells was determined by incubating compounds with cells for 60 min at 33° C., 95% (v:v) air/5% (v:v) CO2 in Dulbecco's Modified Eagle Media. Following this, excitotoxicity was induced by the addition of 6 mM L-glutamate for 24 hours. Cell viability was assessed by measuring ATP levels using a luminescent-based CellTitre Glo assay (Promega). Compound neuroprotection (% cell survival) was expressed as a % of the effect recorded with 100 μM cysteamine (denoted as 100% cell survival).

human recombinant ADO = target: T1, human recombinant ADO (Homo sapiens, UniProt Q96SZ5); type: in vitro ADME; settings: human, 15 mM
T1 sequence (Q96SZ5 1-270): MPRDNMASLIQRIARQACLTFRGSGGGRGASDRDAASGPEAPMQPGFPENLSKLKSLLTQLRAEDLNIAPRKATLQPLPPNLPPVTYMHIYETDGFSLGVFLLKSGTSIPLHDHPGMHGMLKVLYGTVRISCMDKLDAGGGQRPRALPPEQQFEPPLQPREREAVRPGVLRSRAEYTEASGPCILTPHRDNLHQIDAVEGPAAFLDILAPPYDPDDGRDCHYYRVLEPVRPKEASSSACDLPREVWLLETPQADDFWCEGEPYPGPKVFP
Description: The rate of ADO metabolism was determined by incubating 15 mM test compound with 60 μg/ml human recombinant ADO and 20 nM MitoXpress® O2-sensitive fluorescent probe (Luxcel) at 37° C. in assay buffer/salt in a sealed assay chamber. The initial rate of fluorescence (excitation λ380 nm and emission λ650 nm) increase was used to measure ADO-dependent oxygen depletion activity. The ability of ADO to metabolize compounds and concomitantly consume oxygen was expressed relative to that of 15 mM cysteamine.

[1] = test system: cystinotic human fibroblasts; test: Cystine depletion assay; type: cell-based; settings: Homo sapiens, Fibroblast, 1 h, relative to cystine depletion by cysteamine (100%) at a similar concentration
Description: The ability of test compounds to deplete cystine from cystinotic human fibroblasts (Coriell) was determined by incubating compounds with cells for 60 min at 37° C., 95% (v/v) air/5% (v/v) CO2 in Minimal Essential Media Eagle. Treated cell samples were subsequently harvested, then homogenized to ensure plasma and lysosomal membrane disruption. Protein was removed by acid precipitation and cystine in the supernatant measured using LC-MS/MS and HILIC chromatography. Protein levels were determined and cystine levels reported as nM per mg/ml protein. Cystine levels after test compound treatment were expressed as a percentage of that of untreated control cells.
Compounds were assayed at a concentration of 50 μM or 100 μM according to the general methods described above.
Cystine depletion levels for the compounds are expressed in Table 4 as a percent relative to the cystine depletion achieved by cysteamine (c.f. cysteamine 100%) at a similar concentration.
Cystine depletion levels for each of the compounds in Table 5 are expressed as a percent relative to the cystine depletion achieved by cysteamine (c.f. cysteamine 100%) at a similar concentration.

[2] = Table 4, read-out: Cystine Depletion (%)
[3] = Table 5, read-out: Cystine Depletion (%) Mean Value

Compound	Cystine Reactivity Assay (30° C.) (%) Mean Value (Cystine reactivity assay; Table 4)	Cystine Reactivity Assay (30° C.) (%) Mean Value (Cystine reactivity assay; Table 5)	viability at 10 µM (St-HdhQ^111/111 cells) [%]	viability at 100 µM (St-HdhQ^111/111 cells) [%]	ADO Metabolism Assay (%) Mean Value (human recombinant ADO)	Emax [1, 2] [%]	Emax [1, 3] [%]
CC1(S)CCCNC1 (centres unmarked) [Compound 42388]	>90%	>90%	5 ± 6	91 ± 5	<25%	97	63
S[C@@H]1CCNC1 [Compound 42617]	59-90%		7 ± 10	89 ± 7	<25%	101	
SCC1CCCNC1 (centres unmarked) [Compound 145588]		>90%	9 ± 9	98 ± 5	<25%		31
N[C@H]1C[C@@H](S)C1 [Compound 42457]	59-90%	50-90%	6 ± 5	91 ± 6	<25%	108	77
C[C@H]1CNCC[C@@H]1S [Compound 42614]			2 ± 6	59 ± 12	<25%	117	
CS(=O)(=O)N1CCNC(CS)C1 (centres unmarked) [Compound 145694]		>90%	2 ± 10	15 ± 15	<25%		0
OCCC1(S)CNC1 [Compound 145695]		>90%	8 ± 10	74 ± 10	<25%		0
S[C@@H]1CCCNC1 [Compound 42248]	>90%		2 ± 7	81 ± 6	<25%	103	
N[C@H]1C[C@@H](CS)C1 [Compound 145587]		>90%	52 ± 9	97 ± 7	<25%		13
SC1CC2CCC(C1)N2 (centres unmarked) [Compound 42494]	59-90%		0	28 ± 17	<25%	88	
S[C@H]1CCCNC1 [Compound 42247]	>90%		5 ± 8	84 ± 13	<25%	96	
CCN1CCCC1 [Compound 145611]		<50%	24 ± 13	94 ± 8	<25%		9
S[C@H]1CCNC1 [Compound 42616]	59-90%		5 ± 7	56 ± 7	<25%	79	
SC1CCCCNC1 (centres unmarked) [Compound 42345]	>90%				<25%	50	
SC1CCCNC1 (centres unmarked) [Compound 42208]	>90%				<25%	102	
C[C@H]1CC[C@H](S)CN1 [Compound 42613]	>90%				<25%	109	
SCC1CCNCC1 [Compound 145586]		50-90%	9 ± 6	89 ± 9	<25%		21
SC[C@H]1CCCCN1 [Compound 145590]		>90%	14 ± 7	90 ± 11	<25%		104
CCOC(=O)C1(S)CCCNC1 (centres unmarked) [Compound 42493]	50-90%		6 ± 10	87 ± 10	<25%	74	
NCCCNCCS [Compound 145564]		>90%			25-75%		36
CN[C@H]1C[C@H](S)C1 [Compound 149609]		<50%			<25%		50
OC1(CS)CCNCC1 [Compound 145610]		<50%	11 ± 8	87 ± 10	<25%		11
N[C@H]1C[C@H](S)C1 [Compound 42460]	59-90%		3 ± 5	95 ± 9	<25%	111	
SC[C@H]1CCCN1 [Compound 42211]	>90%		2 ± 9	84 ± 19	<25%	79	
